What was measured:
human adult kidney cells = assay: β-catenin immunofluorescence after VPA; assay type: cell-based; conditions: valproic acid 24 hours, vs non-treated cells
Method: (§1) Immunofluorescence Staining: AK, FK (treated and untreated) human epithelial cell line and fibroblast cell line were fixed with acetone at −20° C. for seven minutes and washed with PBS. Cells were blocked with 7% human serum in PBS for 15 minutes followed by incubation with β-catenin antibody (1:150) (Chemicon international) for 60 minutes. Cells were washed and then incubated with secondary antibody with Cy-3 conjugated anti-mouse IgG (1:200) (Jackson) for 30 minutes. For nuclear staining, cells were washed with PBS containing Hochest (Dako). The presence of β-catenin was examined under a Zeiss confocal fluorescence microscope.

human fetal kidney cells = assay: β-catenin immunofluorescence after VPA; assay type: cell-based; conditions: valproic acid 24 hours, vs non-treated cells
Method: as §1

CCCC(CCC)C(=O)O [VPA, valproic acid]
β-catenin immunofluorescence localisation (human adult kidney cells): cyoplasmic and nuclear accumulation
β-catenin immunofluorescence localisation (human fetal kidney cells): cyoplasmic and nuclear accumulation

From US9770469B2, “Methods of reprogramming renal cells” (Tel HaShomer Medical Research Infrastructure and Services …, priority 2009, dated 2017)
